Assay results published in patent publication US9297017B2, “Methods and compositions for targeted protein degradation” (University of Washington, priority 2010, dated 2016).
Several values for one entry are separate records, joined by “and”; a condition that tells them apart may be missing. Equal entries are not always repeated.

Legend:
COI1/JAZ1 complex = target: T1, COI1/JAZ1 complex (Arabidopsis thaliana, UniProt O04197+Q9LMA8); experiment: Saturation radioligand binding of 3H-coronatine to COI1/ASK1 in the presence of JAZ1
T1 construct: Full-length Arabidopsis thaliana COI1 and ASK1 were co-expressed; Full-length JAZ substrate proteins were expressed as 6×His-fusion proteins in Escherichia coli; GST (cleaved yes); 6xHis; made in house; host or cells: Hi5 insect cells (COI1/ASK1); Escherichia coli (JAZ1)
T1 sequence (O04197 1-592): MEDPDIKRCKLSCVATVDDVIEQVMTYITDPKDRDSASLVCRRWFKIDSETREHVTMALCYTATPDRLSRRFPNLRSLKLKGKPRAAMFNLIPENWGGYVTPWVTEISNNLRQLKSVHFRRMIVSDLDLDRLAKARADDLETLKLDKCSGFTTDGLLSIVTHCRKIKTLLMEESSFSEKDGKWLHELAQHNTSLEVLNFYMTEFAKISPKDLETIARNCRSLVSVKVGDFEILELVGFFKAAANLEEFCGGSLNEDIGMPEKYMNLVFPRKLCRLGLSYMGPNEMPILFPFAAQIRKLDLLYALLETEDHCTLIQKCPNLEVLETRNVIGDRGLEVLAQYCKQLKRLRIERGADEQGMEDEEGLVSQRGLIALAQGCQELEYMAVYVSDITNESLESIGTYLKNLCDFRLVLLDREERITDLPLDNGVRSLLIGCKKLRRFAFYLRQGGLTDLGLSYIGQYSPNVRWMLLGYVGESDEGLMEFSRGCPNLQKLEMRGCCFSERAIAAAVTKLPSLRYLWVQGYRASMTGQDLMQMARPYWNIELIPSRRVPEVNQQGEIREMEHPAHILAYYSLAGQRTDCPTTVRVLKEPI
T1 sequence (Q39255 1-160 partner): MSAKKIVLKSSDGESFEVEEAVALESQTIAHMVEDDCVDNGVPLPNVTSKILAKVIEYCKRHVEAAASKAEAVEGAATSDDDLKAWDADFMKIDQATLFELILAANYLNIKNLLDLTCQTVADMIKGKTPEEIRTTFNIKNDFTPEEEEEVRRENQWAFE
T1 sequence (Q9LMA8 1-253): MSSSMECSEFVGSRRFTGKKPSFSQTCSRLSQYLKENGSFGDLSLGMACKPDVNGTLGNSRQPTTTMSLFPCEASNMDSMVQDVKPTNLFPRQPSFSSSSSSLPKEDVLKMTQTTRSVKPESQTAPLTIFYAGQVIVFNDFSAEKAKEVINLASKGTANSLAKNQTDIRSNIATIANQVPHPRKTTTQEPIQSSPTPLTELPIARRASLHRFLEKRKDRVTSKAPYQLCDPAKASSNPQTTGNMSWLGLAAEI
Text: (§1) (^3H)-labeled coronatine was synthesized by Amersham. Full-length Arabidopsis thaliana COI1 and ASK1 were co-expressed as a glutathione S-transferase (GST) fusion protein and an untagged protein, respectively, in Hi5 suspension insect cells. The COI1/ASK1 complex was isolated from the soluble cell lysate by glutathione affinity chromatography. After on-column tag cleavage by tobacco etch virus protease, the complex was further purified by anion exchange and gel filtration chromatography and concentrated by ultrafiltration to 12-18 mg ml^−1. Full-length JAZ substrate proteins were expressed as 6×His-fusion proteins in Escherichia coli and purified on Ni-NTA resin with subsequent dialysis into 20 mM Tris-HCl, pH 8.0, 200 mM NaCl, and 10% glycerol.
Radioligand binding was assayed on purified proteins, with 2 mg COI1/ASK1 complex and JAZ proteins at a 1:3 molar ratio. […] Nonspecific binding was determined in the presence of […] coronatine. Competition binding experiments were conducted with serial dilutions of JA-Ile in the presence of 100 nM ^3H coronatine with nonspecific binding determined in the presence of […] coronatine. Total binding was determined in the presence of vehicle only. Two-point binding experiments were performed in the presence of 100 nM or 300 nM ^3H-coronatine with nonspecific binding determined in the presence of 300 mM coronatine. […]

COI1-JAZ6 complex [1] = target: T2, COI1-JAZ6 complex (Arabidopsis thaliana, UniProt O04197+Q9C9E3); experiment: Saturation radioligand binding of 3H-coronatine to COI1/ASK1 in the presence of JAZ6
T2 construct: Full-length Arabidopsis thaliana COI1 and ASK1 were co-expressed; Full-length JAZ substrate proteins were expressed as 6×His-fusion proteins in Escherichia coli; GST (cleaved yes); 6xHis; made in house; host or cells: Hi5 insect cells (COI1/ASK1); Escherichia coli (JAZ6)
T2 sequence (O04197 1-592): T1 sequence (O04197 1-592)
T2 sequence (Q39255 1-160 partner): T1 sequence (Q39255 1-160 partner)
T2 sequence (Q9C9E3 1-269): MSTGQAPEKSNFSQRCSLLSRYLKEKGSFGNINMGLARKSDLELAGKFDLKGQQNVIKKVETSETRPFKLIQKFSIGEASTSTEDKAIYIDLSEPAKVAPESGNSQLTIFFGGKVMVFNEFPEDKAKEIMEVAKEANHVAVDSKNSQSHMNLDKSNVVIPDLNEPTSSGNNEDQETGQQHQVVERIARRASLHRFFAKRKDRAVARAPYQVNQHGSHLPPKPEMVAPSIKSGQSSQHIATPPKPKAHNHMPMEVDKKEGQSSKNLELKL
Text: as §1
(§2) Radioligand binding was assayed on purified proteins, with 2 mg COI1/ASK1 complex and JAZ proteins at a 1:3 molar ratio. Reactions were prepared in […] final volume and in a binding buffer containing 20 mM Tris-HCl 200 mM NaCl, and 10% glycerol. Saturation binding experiments were conducted with serial dilutions of 3H-coronatine in binding buffer. Nonspecific binding was determined in the presence of […] coronatine. Competition binding experiments were conducted with serial dilutions of JA-Ile in the presence of 100 nM ^3H coronatine with nonspecific binding determined in the presence of […] coronatine. Total binding was determined in the presence of vehicle only. Two-point binding experiments were performed in the presence of 100 nM or 300 nM ^3H-coronatine with nonspecific binding determined in the presence of […] coronatine. Following incubation with mixing at 4° C., all samples were collected with a cell harvester (Brandel, Gaithersburg, Md.) on polyethyleneimine (Sigma)-treated filters. […] Saturation binding experiments were analyzed by nonlinear regression, competition binding experiments by nonlinear regression with Ki calculation as described previously (Cheng 1973), and concentration-response data by sigmoidal dose-response curve fitting, all using GraphPad Prism version 4.00 for MacOSX.

COI1 = target: T3, COI1 (Arabidopsis thaliana, UniProt O04197); experiment: Radioligand binding of 3H-coronatine to COI1 alone
T3 construct: Full-length Arabidopsis thaliana COI1 and ASK1 were co-expressed; GST (cleaved yes); made in house; host or cells: Hi5 insect cells (COI1/ASK1); JAZ peptides synthetic
T3 sequence (O04197 1-592): T1 sequence (O04197 1-592)
T3 sequence (Q39255 1-160 partner): T1 sequence (Q39255 1-160 partner)
Text: as §1, §2

COI1-JAZ6 complex [2] = target: T2, COI1-JAZ6 complex; experiment: Competition binding with 100 nM 3H-coronatine; conditions: relative to (3R,7S)-JA-Ile
Text: as §1, §2

Structure (SMILES): CC[C@H]1C=C(C(=O)N[C@@]2(C(=O)O)C[C@@H]2CC)[C@H]2CCC(=O)[C@H]2C1 [coronatine]
- Binding affinity for COI1/JAZ1 complex (COI1/JAZ1 complex): high affinity
- Kd (COI1/JAZ1 complex; COI1/JAZ1 complex, listed as 3H-coronatine): 68 nM and 48 nM
- Binding affinity for COI1/JAZ6 complex (COI1-JAZ6 complex [1]): high affinity
- Concentration at which binding reached the level of saturation (COI1-JAZ6 complex [1]; COI1/JAZ6 complex): 300 nM
- Kd (COI1-JAZ6 complex [1]; COI1/JAZ6 complex, listed as 3H-coronatine): 48 nM and 68 nM
- Specific binding to COI1 alone (COI1; 300 nM coronatine): < 2%
- Binding affinity for COI1 alone (COI1): minimal binding affinity
- Binding affinity for COI1 alone (COI1; listed as 3H-coronatine): no appreciable binding affinity
- Affinity of coronatine over (3R,7S)-JA-Ile in binding assays (COI1-JAZ6 complex [2]): approximately tenfold
